Measurements taken from US20240016779A1, “COMPOSITION FOR PREVENTING AND TREATING INFLAMMATORY DISEASE AND AUTOIMMUNE DISEASES AND NON-ALCOHOLIC FATTY LIVER DISEASE, COMPRISING EXTRACT DERIVED FROM CENTIPEDA MINIMA” (D-NATURE CO., LTD., priority 2020, published 2024).

Assays:
Assay type in all cases: cell-based
3T3-L1 cells [1] = assay: Adipocyte differentiation inhibitory effect; settings: tested 0.16, 0.31, 0.63, 1.25 μg/ml
Description: To confirm the effect of the Centipeda minima extract for inhibiting non-alcoholic steatohepatitis, an experiment was performed on preadipocytes according to an inflammatory disease treatment agent.
Specifically, the evaluation was performed by using 3T3-L1 cells, which are preadipocytes, and after the 3T3-L1 cells were treated with each of JAKI and elafibranor at concentrations of 0 μg/ml, 0.16 μg/ml, 0.31 μg/ml, 0.63 μg/ml, and 1.25 μg/ml and then cultured for 6 hours under the same conditions, the changes of the 3T3-L1 cells were analyzed.

3T3-L1 cells [2] = assay: TNF-a induced IL-6 production in preadipocytes; settings: 0.16 to 2.5 μg/ml
Description: To confirm the non-alcoholic steatohepatitis inhibitory effect of the Centipeda minima extract, an experiment was performed with INF-a induced IL-6 production in preadipocytes according to an inflammatory disease treatment agent.
(§1) Specifically, the evaluation was performed by using 3T3-L1 cells, which are preadipocytes, and after the 3T3-L1 cells were treated with each of JAKI and elafibranor at concentrations of 0 μg/ml, 0.16 μg/ml, 0.31 μg/ml, 0.63 μg/ml, 1.25 μg/ml, and 2.5 μg/ml and then cultured for 6 hours under the same conditions, the changes of the IL-6 production were analyzed.

3T3-L1 cells [3] = assay: TNF-a induced MCP-1 production in preadipocytes; settings: 0.16 to 2.5 μg/ml
Description: To confirm the non-alcoholic steatohepatitis inhibitory effect of the Centipeda minima extract, an experiment was performed with TNF-a induced MCP-1 production in preadipocytes according to an inflammatory disease treatment agent.
as §1, with “MCP-1” for “IL-6”

LX-2 cells = assay: Liver fibrosis-related protein expression; settings: 40 μM, 24 hours
Description: Specifically, the evaluation was performed by using LX-2 cells, which are hepatic stellate cells. LX-2 cells treated with TGF-P1 at a concentration of 5 ng/ml were treated with JAKI at concentrations of 0 μM, 20 μM, and 40 μM, and then cultured under the same conditions for 24 hours. Thereafter, the protein expression levels of TGF-131, collagen type-1, MMP-2, TIMP1, and GAPDH, and the protein expression ratios of TGF-131, collagen type-1, MMP-2, and TIMP1 compared to GAPDH were analyzed.
Specifically, the evaluation was performed by using LX-2 cells, which are hepatic stellate cells. The LX-2 cells treated with 5 ng/ml TGF-P1 were treated with elafibranor at concentrations of 0 μM, 20 μM, 40 μM, and 80 μM in the control group of the present invention, and the cultured for 24 hours under the same conditions. Then, the protein expression ratios of TGF-131, collagen type-1, MMP-2, and TIMP1 compared to GAPDH were analyzed.

Structure (SMILES): CSc1ccc(C(=O)/C=C/c2cc(C)c(OC(C)(C)C(=O)O)c(C)c2)cc1 [elafibranor]
- concentration from which adipocyte differentiation is inhibited (3T3-L1 cells [1]): ≥ 0.63 µg/mL
- change in the IL-6 production (3T3-L1 cells [2]): no change
- change in the MCP-1 production (3T3-L1 cells [3]): no change
- expression ratio of MMP-2 protein compared to GAPDH (LX-2 cells): decreased
- expression ratio of TGF-β1 protein compared to GAPDH (LX-2 cells): decreased
- expression ratio of TIMP1 protein compared to GAPDH (LX-2 cells): decreased
- expression ratio of collagen type-1 protein compared to GAPDH (LX-2 cells): decreased
